Experimental data: US10350211B2, “Bumped kinase inhibitor compositions and methods for treating cancer” (UNIVERSITY OF WASHINGTON, priority 2015, dated 2019)

Columns and labels:
[1] = tested on: MCF7 cell; assay: Breast cancer cell proliferation, MCF7; format: cell-based; conditions: 72 hours; tested at 0.2, 2, and 20 μM, concentration of the values not given
Description: (§1) MCF7 and MDA231 cell lines were plated at 2000 and 1000 cells/well, respectively. 24 hours later, BKI inhibitor of the disclosure was added to each well at concentrations of 0.2, 2, and 20 μM. After 72 hours, […] was used to measure cell growth.

[2] = tested on: MDA231 cell; assay: Breast cancer cell proliferation, MDA231; format: cell-based; conditions: 72 hours; tested at 0.2, 2, and 20 μM, concentration of the values not given
Description: as §1

[3] = molecular target: PKD; conditions: cited from earlier work
[4] = therapeutic levels cannot be obtained in vivo; cited from earlier work
[5] = tested on: prostate cancer AR− as well as AR+ lines; conditions: cited from earlier work
[6] = tested on: other human kinases beyond PKDs, including mutated Src; conditions: cited from earlier work
[7] = cited from earlier work
[8] = tested on: PCa tumor; conditions: 60 mg/kg, 2× daily; cited from earlier work

SMILES | MCF7 cell inhibition (%) [1] | MDA231 cell inhibition (%) [2] | further results
CCOc1ccc2ccc(-c3nn(CC4CCNCC4)c4ncnc(N)c34)cc2c1 [Example 51, 3-(7-ethoxynaphthalen-2-yl)-1-(piperidin-4-ylmethyl)-1H-pyrazolo[3,4-d]pyrimidin-4-amine] | 97% | 95% | 
Nc1ncnc2c1c(-c1ccc3nc(OC4CC4)ccc3c1)nn2CC1(CO)COC1 [Example 67, (3-((4-amino-3-(2-cyclopropoxyquinolin-6-yl)-1H-pyrazolo[3,4-d]pyrimidin-1-yl)methyl)oxetan-3-yl)methanol] | 40% | 0% | 
CN1CCC(Cn2nc(-c3ccc4nc(OCC(F)(F)F)ccc4c3)c3c(N)ncnc32)CC1 [Example 16, 1-((1-Methylpiperidin-4-yl)methyl)-3-(2-(2,2,2-trifluoroethoxy)quinolin-6-yl)-1H-pyrazolo[3,4-d]pyrimidin-4-amine] | 50% | 90% | 
CC(C)(C)n1nc(Cc2cccc3ccccc23)c2c(N)ncnc21 [Example 1NM-PP1] |  |  | PKD kinase activity [3]: potently blocked; metabolism [4]: quickly metabolized; prostate cancer cell growth/proliferation [5]: potently blocked; off-target kinases [6]: target other human kinases beyond PKDs, including mutated Src; solubility [7]: low solubility
CCOc1ccc2cc(-c3nn(CC4CCNCC4)c4ncnc(N)c34)ccc2n1 [Example 127, 3-(2-ethoxyquinolin-6-yl)-1-(piperidin-4-ylmethyl)-1H-pyrazolo[3,4-d]pyrimidin-4-amine] | 50% | 0% | 
CCOc1ccc2cc(-c3nc(CC4CCNCC4)n4ccnc(N)c34)ccc2c1 [Example 120, 1-(6-ethoxynaphthalen-2-yl)-3-(piperidin-4-ylmethyl)imidazo[1,5-a]pyrazin-8-amine] | 30% | 50% | 
CC(C)(O)Cn1cc(-c2ccc3nc(OC4CC4)ccc3c2)c2c(N)ncnc21 [Example 58, 1-(4-amino-5-(2-cyclopropoxyquinolin-6-yl)-7H-pyrrolo[2,3-d]pyrimidin-7-yl)-2-methylpropan-2-ol] | 50% | 10% | 
CCOc1ccc2cc(-c3nn(C4CCN(CC)CC4)c4ncnc(N)c34)ccc2c1 [Example 109, 3-(6-ethoxynaphthalen-2-yl)-1-(1-ethylpiperidin-4-yl)-1H-pyrazolo[3,4-d]pyrimidin-4-amine] | 50% | 50% | 
CCOc1ccc2cc(-c3nn(C4CCNCC4)c4ncnc(N)c34)ccc2c1 [Example 111, 3-(6-ethoxynaphthalen-2-yl)-1-(piperidin-4-yl)-1H-pyrazolo[3,4-d]pyrimidin-4-amine] | 70% | 90% | 
CCOc1ccc2cc(-c3nn(CC4CCN(C)CC4)c4ncnc(N)c34)ccc2c1 [Example 128] | 40% | 50% | 
CC(C)Oc1ccc2cc(-c3nn(CC4CCNCC4)c4ncnc(N)c34)ccc2c1 [Example 130, 3-(6-isopropoxynaphthalen-2-yl)-1-(piperidin-4-ylmethyl)-1H-pyrazolo[3,4-d]pyrimidin-4-amine] | 30% | 80% | 
Fc1ccc(Cl)cc1-c1nc(Nc2ccncc2)c2nccnc2n1 [SD-208] |  |  | PKD kinase activity [3]: potently blocked; PCa tumor growth [8]: decrease in PCa tumor growth; prostate cancer cell growth/proliferation [5]: potently blocked
CCOc1ccc2cc(-c3nn(CC4CCN(C)CC4)c4ncnc(N)c34)ccc2n1 [Example 15, 3-(2-Ethoxyquinolin-6-yl)-1-((1-methylpiperidin-4-yl)methyl)-1H-pyrazolo[3,4-d]pyrimidin-4-amine] | 40% | 30% | 
CC(C)(O)Cn1nc(-c2ccc3nc(OC4CC4)ccc3c2)c2c(N)ncnc21 [Example 25, 1-(4-Amino-3-(2-cyclopropoxyquinolin-6-yl)-1H-pyrazolo[3,4-d]pyrimidin-1-yl)-2-methylpropan-2-ol] | 30% | 20% | 
CCCOc1ccc2cc(-c3nn(CC4CCNCC4)c4ncnc(N)c34)ccc2c1 [Example 129, 1-(piperidin-4-ylmethyl)-3-(6-propoxynaphthalen-2-yl)-1H-pyrazolo[3,4-d]pyrimidin-4-amine] | 75% | 90% | 
CC(C)(C)n1nc(-c2cccc3ccccc23)c2c(N)ncnc21 [Example 1NA-PP1] |  |  | PKD kinase activity [3]: potently blocked; metabolism [4]: quickly metabolized; prostate cancer cell growth/proliferation [5]: potently blocked; off-target kinases [6]: target other human kinases beyond PKDs, including mutated Src; solubility [7]: low solubility
CCOc1ccc2cc(-c3nn(C(C)C)c4ncnc(N)c34)ccc2n1 [Example 110, 3-(2-ethoxyquinolin-6-yl)-1-isopropyl-1H-pyrazolo[3,4-d]pyrimidin-4-amine] | 30% | 10% | 
CN1CCC(Cn2nc(-c3ccc4cc(OC5CC5)ccc4c3)c3c(N)ncnc32)CC1 [Example 4, 3-(6-Cyclopropoxynaphthalen-2-yl)-1-((1-methylpiperidin-4-yl)methyl)-1H-pyrazolo[3,4-d]pyrimidin-4-amine] | 50% | 60% | 
